According to patent US10899737B2, “Piperazine carbamates and methods of making and using same” (Lundbeck La Jolla Research Center, Inc., priority 2016, dated 2021):

Tests used:
Type in all cases: biochemical
MAGL [1] = target: T1, MAGL (Homo sapiens, UniProt Q99685); assay: In vitro competitive activity-based protein profiling (human), MAGL; settings: for inhibition at 1 µM: 1 μM inhibitor, human proteome, 30 min preincubation at 37° C, read-out: MAGL % inh. 1 μM (human); for IC50: human PC3
T1 construct: Proteomes (human prefrontal cortex or cell membrane fractions); from tissue
T1 sequence (Q99685 1-303): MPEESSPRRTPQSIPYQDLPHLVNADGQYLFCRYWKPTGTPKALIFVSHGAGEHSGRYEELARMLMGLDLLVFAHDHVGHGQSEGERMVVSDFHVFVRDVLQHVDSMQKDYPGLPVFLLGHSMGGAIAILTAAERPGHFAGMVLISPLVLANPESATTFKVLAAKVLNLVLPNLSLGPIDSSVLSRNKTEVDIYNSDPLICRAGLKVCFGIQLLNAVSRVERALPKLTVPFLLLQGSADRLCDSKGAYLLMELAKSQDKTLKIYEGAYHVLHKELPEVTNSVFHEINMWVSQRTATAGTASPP
Procedure: (§1) In Vitro Competitive Activity-Based Protein Profiling (Human).
(§2) Proteomes (human prefrontal cortex or cell membrane fractions) (50 μL, 1.0-2.0 mg/mL total protein concentration) were preincubated with varying concentrations of inhibitors at 37° C. After 30 min, FP-Rh or JW912 (1.0 μL, 50 μM in DMSO) was added and the mixture was incubated for another 30 min at room temperature. Reactions were quenched with SDS loading buffer (15 μL-4×) and run on SDS-PAGE. Following gel imaging, serine hydrolase activity was determined by measuring fluorescent intensity of gel bands corresponding to MAGL and ABHD6 using ImageJ 1.49 k software.

ABHD6 [2] = target: T2, ABHD6 (Homo sapiens, UniProt Q9BV23); assay: In vitro competitive activity-based protein profiling (human), ABHD6; settings: human PC3
T2 construct: Proteomes (human prefrontal cortex or cell membrane fractions); endogenous in cells; human prefrontal cortex
T2 sequence (Q9BV23 1-337): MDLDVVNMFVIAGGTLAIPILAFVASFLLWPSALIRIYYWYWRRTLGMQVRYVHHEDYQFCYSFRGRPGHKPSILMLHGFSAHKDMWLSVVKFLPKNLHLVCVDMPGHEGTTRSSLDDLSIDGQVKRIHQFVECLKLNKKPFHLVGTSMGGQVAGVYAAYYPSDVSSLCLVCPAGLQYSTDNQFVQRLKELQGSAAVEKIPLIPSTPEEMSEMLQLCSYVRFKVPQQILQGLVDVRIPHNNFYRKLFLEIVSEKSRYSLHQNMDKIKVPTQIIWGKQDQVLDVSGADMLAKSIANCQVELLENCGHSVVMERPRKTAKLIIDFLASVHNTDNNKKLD
Procedure: as §1, §2

MAGL [3] = target: T3, MAGL (Mus musculus, UniProt O35678); assay: In vitro competitive activity-based protein profiling (mouse), MAGL; settings: 1 μM inhibitor, mouse brain membrane fraction or cell lysates; read-out: MAGL % inh. 1 μM (mouse)
T3 construct: Proteomes (mouse brain membrane fraction or cell lysates); from tissue; host or cells: mouse brain membrane fraction or cell lysates
T3 sequence (O35678 1-303): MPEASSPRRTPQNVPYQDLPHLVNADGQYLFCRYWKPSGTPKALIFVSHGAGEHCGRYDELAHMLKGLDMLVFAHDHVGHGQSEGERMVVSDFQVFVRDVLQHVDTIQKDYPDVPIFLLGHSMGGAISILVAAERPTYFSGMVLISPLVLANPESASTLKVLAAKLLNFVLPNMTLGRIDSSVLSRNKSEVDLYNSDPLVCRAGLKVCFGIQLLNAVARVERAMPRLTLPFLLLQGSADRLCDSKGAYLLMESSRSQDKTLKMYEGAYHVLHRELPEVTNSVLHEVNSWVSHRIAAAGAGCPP
Procedure: (§3) In Vitro Competitive Activity-Based Protein Profiling (Mouse).
(§4) Proteomes (mouse brain membrane fraction or cell lysates) (50 μL, 1.0 mg/mL total protein concentration) were preincubated with varying concentrations of inhibitors at 37° C. After 30 min, FP-Rh (1.0 μL, 50 μM in DMSO) was added and the mixture was incubated for another 30 min at 37° C. Reactions were quenched with SDS loading buffer (50 μL-4×) and run on SDS-PAGE. Following gel imaging, serine hydrolase activity was determined by measuring fluorescent intensity of gel bands corresponding to MAGL and ABHD6 using ImageJ 1.49 k software. Data from this assay is shown in Table 1 (% inhibition at 1 μM).

ABHD6 [4] = target: T4, ABHD6 (Mus musculus, UniProt Q8R2Y0); assay: In vitro competitive activity-based protein profiling (mouse), ABHD6; settings: 1 μM inhibitor, mouse brain membrane fraction or cell lysates; read-out: ABHD6 % inh. 1 μM (mouse)
T4 construct: Proteomes (mouse brain membrane fraction or cell lysates); from tissue; host or cells: mouse brain membrane fraction or cell lysates
T4 sequence (Q8R2Y0 1-336): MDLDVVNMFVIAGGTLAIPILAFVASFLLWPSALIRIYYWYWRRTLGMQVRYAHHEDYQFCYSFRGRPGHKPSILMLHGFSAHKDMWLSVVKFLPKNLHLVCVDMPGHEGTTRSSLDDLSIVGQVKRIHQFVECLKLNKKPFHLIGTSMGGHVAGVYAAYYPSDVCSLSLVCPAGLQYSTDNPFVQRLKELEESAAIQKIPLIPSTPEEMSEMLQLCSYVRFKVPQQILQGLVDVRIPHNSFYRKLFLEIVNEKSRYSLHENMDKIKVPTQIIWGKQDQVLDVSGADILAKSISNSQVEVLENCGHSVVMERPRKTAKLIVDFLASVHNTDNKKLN
Procedure: as §3, §4

| Compound | inhibition at 1 µM (MAGL [1]) [%] | IC50 (MAGL [1]) [µM] | IC50 (ABHD6 [2]) [µM] | inhibition at 1 µM (MAGL [3]) [%] | inhibition at 1 µM (ABHD6 [4]) [%] |
| --- | --- | --- | --- | --- | --- |
| O=C(O)Cn1ccc(-c2ccccc2CN2CCN(C(=O)OC(C(F)(F)F)C(F)(F)F)CC2)n1 [Example 11, 2-(3-(2-((4-(((1,1,1,3,3,3-Hexafluoropropan-2-yl)oxy)carbonyl)piperazin-1-yl)methyl)phenyl)-1H-pyrazol-1-yl)acetic Acid] | ≥ 75 | 0.1 to 1 | 1 to 10 | ≥ 75 | 0 to 25 |
| O=C(O)C1CCN(c2c(Cl)cccc2CN2CCN(C(=O)OC(C(F)(F)F)C(F)(F)F)CC2)CC1 [Example 75, 1-(2-chloro-6-((4-(((1,1,1,3,3,3-hexafluoropropan-2-yl)oxy)carbonyl)piperazin-1-yl)methyl)phenyl)piperidine-4-carboxylic acid] | ≥ 75 |  |  | ≥ 75 | 50 to 75 |
| Cc1cc(N2CCC(C(=O)O)CC2)c(CN2CCN(C(=O)OC(C(F)(F)F)C(F)(F)F)CC2)cc1F [Example 76, 1-(4-fluoro-2-((4-(((1,1,1,3,3,3-hexafluoropropan-2-yl)oxy)carbonyl)piperazin-1-yl)methyl)-5-methylphenyl)piperidine-4-carboxylic acid] |  | ≤ 0.1 | 1 to 10 |  |  |
| O=C(O)C1CCN(c2ccc(CN3CCN(C(=O)OC(C(F)(F)F)C(F)(F)F)CC3)cc2)CC1 [Example 77, 1-(4-((4-(((1,1,1,3,3,3-hexafluoropropan-2-yl)oxy)carbonyl)piperazin-1-yl)methyl)phenyl)piperidine-4-carboxylic acid] |  |  |  | ≥ 75 | ≥ 75 |
| O=C(O)C1CCN(c2c(CN3CCN(C(=O)OC(C(F)(F)F)C(F)(F)F)CC3)cccc2C(F)(F)F)CC1 [Example 74, 1-(2-((4-(((1,1,1,3,3,3-hexafluoropropan-2-yl)oxy)carbonyl)piperazin-1-yl)methyl)-6-(trifluoromethyl)phenyl)piperidine-4-carboxylic acid] | ≥ 75 |  |  | ≥ 75 | ≥ 75 |
| C#Cc1ccc(CN2CCN(C(=O)OC(C(F)(F)F)C(F)(F)F)CC2)c(N2CCC(C(=O)O)CC2)c1 [Example 82, 1-(5-ethynyl-2-((4-(((1,1,1,3,3,3-hexafluoropropan-2-yl)oxy)carbonyl)piperazin-1-yl)methyl)phenyl)piperidine-4-carboxylic acid] | ≥ 75 |  |  | ≥ 75 | 50 to 75 |
| O=C(O)CN1CCC(C2CCN(c3cc(Cl)ccc3CN3CCN(C(=O)OC(C(F)(F)F)C(F)(F)F)CC3)CC2)C1 (centres unmarked) [Example 33, 2-(3-(1-(5-Chloro-2-((4-(((1,1,1,3,3,3-hexafluoropropan-2-yl)oxy)carbonyl)piperazin-1-yl)methyl)phenyl)piperidin-4-yl)pyrrolidin-1-yl)acetic Acid] | ≥ 75 |  |  | ≥ 75 | 50 to 75 |
| N#Cc1ccc(CN2CCN(C(=O)OC(C(F)(F)F)C(F)(F)F)CC2)c(-c2ccn(CC(=O)O)n2)c1 [Example 50, 2-(3-(5-cyano-2-((4-(((1,1,1,3,3,3-hexafluoropropan-2-yl)oxy)carbonyl)piperazin-1-yl)methyl)phenyl)-1H-pyrazol-1-yl)acetic acid] | ≥ 75 |  |  | ≥ 75 | ≥ 75 |
| O=C(O)C1CCN(c2cc(Cl)c(F)cc2CN2CCN(C(=O)OC(C(F)(F)F)C(F)(F)F)CC2)CC1 [Example 60, 1-(5-chloro-4-fluoro-2-((4-(((1,1,1,3,3,3-hexafluoropropan-2-yl)oxy)carbonyl)piperazin1-yl)methyl)phenyl)piperidine-4-carboxylic acid] | ≥ 75 |  |  | ≥ 75 | ≥ 75 |
| N#Cc1ccc(CN2CCN(C(=O)OC(C(F)(F)F)C(F)(F)F)CC2)c(C2(C(=O)O)CCCC2)c1 [Example 30, 1-(5-Cyano-2-((4-(((1,1,1,3,3,3-hexafluoropropan-2-yl)oxy)carbonyl)piperazin-1-yl)methyl)phenyl)cyclopentane-1-carboxylic Acid] |  |  |  | ≥ 75 | 0 to 25 |

Further lines, results first:

| inhibition at 1 µM (MAGL [1]) [%] | IC50 (MAGL [1]) [µM] | IC50 (ABHD6 [2]) [µM] | inhibition at 1 µM (MAGL [3]) [%] | inhibition at 1 µM (ABHD6 [4]) [%] | Compound |
| --- | --- | --- | --- | --- | --- |
| ≥ 75 | ≤ 0.1 | 0.1 to 1 | ≥ 75 | ≥ 75 | CCC1(C(=O)O)CCN(c2cc(CN3CCN(C(=O)OC(C(F)(F)F)C(F)(F)F)CC3)cc(C(F)(F)F)c2)CC1 [Example 53, 4-ethyl-1-(3-((4-(((1,1,1,3,3,3-hexafluoropropan-2-yl)oxy)carbonyl)piperazin-1-yl)methyl)-5-(trifluoromethyl)phenyl)piperidine-4-carboxylic acid] |
| ≥ 75 | ≤ 0.1 | 1 to 10 | ≥ 75 | 0 to 25 | O=C(O)CNCC1CCN(c2cc(C(F)(F)F)ccc2CN2CCN(C(=O)OC(C(F)(F)F)C(F)(F)F)CC2)CC1 [Example 61, ((1-(2-((4-(((1,1,1,3,3,3-hexafluoropropan-2-yl)oxy)carbonyl)piperazin-1-yl)methyl)-5-(trifluoromethyl)phenyl)piperidin-4-yl)methyl)glycine] |
| ≥ 75 | ≤ 0.1 | 1 to 10 | ≥ 75 | 0 to 25 | O=C(O)CNC1CCN(c2cc(C(F)(F)F)ccc2CN2CCN(C(=O)OC(C(F)(F)F)C(F)(F)F)CC2)CC1 [Example 49, (1-(2-((4-(((1,1,1,3,3,3-hexafluoropropan-2-yl)oxy)carbonyl)piperazin-1-yl)methyl)-5-(trifluoromethyl)phenyl)piperidin-4-yl)glycine] |
| 50 to 75 |  |  | ≥ 75 | 0 to 25 | O=C(O)C1CCCCN1c1cc(C(F)(F)F)ccc1CN1CCN(C(=O)OC(C(F)(F)F)C(F)(F)F)CC1 (centres unmarked) [Example 65, 1-(2-((4-(((1,1,1,3,3,3-hexafluoropropan-2-yl)oxy)carbonyl)piperazin-1-yl)methyl)-5-(trifluoromethyl)phenyl)piperidine-2-carboxylic acid] |
| ≥ 75 |  |  | ≥ 75 | ≥ 75 | O=C(O)C1CN(c2cc(C(F)(F)F)ccc2CN2CCN(C(=O)OC(C(F)(F)F)C(F)(F)F)CC2)C1 [Example 79, 1-(2-((4-(((1,1,1,3,3,3-hexafluoropropan-2-yl)oxy)carbonyl)piperazin-1-yl)methyl)-5-(trifluoromethyl)phenyl)azetidine-3-carboxylic acid] |
| ≥ 75 |  |  | ≥ 75 | 0 to 25 | CN1CCN(c2cc(C(F)(F)F)ccc2CN2CCN(C(=O)OC(C(F)(F)F)C(F)(F)F)CC2)CC1C(=O)O (centres unmarked) [Example 58, 4-(2-((4-(((1,1,1,3,3,3-hexafluoropropan-2-yl)oxy)carbonyl)piperazin-1-yl)methyl)-5-(trifluoromethyl)phenyl)-1-methylpiperazine-2-carboxylic acid] |
